“Also recorded” adds a separate entry of the source.
How the values were obtained:
[1] = test system: primary cortical neuronal cultures
Procedure: Establishment of cortical cultures was as previously described (Meloni et al. 2001). Briefly, cortical tissue from E18-E19 Sprague-Dawley rats was dissociated in Dulbecco's modified Eagle medium (DMEM; Invitrogen, Australia) supplemented with 1.3 mM L-cysteine, 0.9 mM NaHCOa, 10 units/ml papain (Sigma, USA) and 50 units/ml DNase (Sigma) and washed in cold DMEM/10% horse serum. Neurons were resuspended in Neurobasal (Invitrogen) containing 2% B27 supplement (B27; Invitrogen). Before seeding, 96-well sized glass wells (6 mm diameter, ProTech, Australia) or 96-well plastic plates (ProSciTech, Australia) were coated with poly-D-lysine overnight ([…]: 50 mg/mL; 70-150 K, Sigma). Excess poly-D-lysine solution was then removed and replaced with Neurobasal (containing 2% B27; 4% fetal bovine serum; 1% horse serum; […] glutamate; […] 2-mercaptoethanol; and […]). Neurons were plated to obtain ≈10,000 viable neurons for each well on day in vitro 11-12. Neuronal cultures were maintained in a CO2 incubator (5% CO2, 95% air balance, 98% humidity) at 37° C. On day in vitro 4 one third of the culture medium was removed and replaced with fresh Neurobasal/2% B27 containing the mitotic inhibitor, cytosine arabinofuraNOside (1 mM final concentration; Sigma). On day in vitro 8 one half of the culture medium was replaced with Neurobasal/2% B27. Cultures were used on day in vitro 11 or 12 after which time they routinely consist of >97% neurons and 1-3% astrocytes (Meloni et al. 2001).
Peptides were added to culture wells (96-well plate format) 15 minutes prior to glutamic acid or kainic acid exposure by removing media and adding 50 μl of Neurobasal/2% 327 containing CPPs, control peptides or MK801/CNQX. To induce excitotoxicity, 50 μl of Neurobasal/2% B27 containing glutamic acid (200 μM) or kainic acid (400 μM) or NMDA (200 μM) was added to the culture wells (100 μM glutamic acid, 200 μM kainic acid and NMDA 100 μM final concentration). Cultures were incubated at 37° C. in the CO2 incubator for 5 minutes for glutamic acid, 45 minutes for kainic acid and 10 minutes for NMDA exposure, after which time the media was replaced with 100 μl of 50% Neurobasal/2% N2 supplement (Invitrogen) and 50% balanced salt solution (BSS; see below). Cultures were incubated for a further 24 hours at 37° C. in the CO2 incubator. The untreated controls with or without glutamic acid or kainic acid treatment received the same wash steps and media additions.
(§1) Twenty-four hours after insult, neuronal cultures were examined by light microscopy for qualitative assessment of neuronal cell viability. Neuronal viability was quantitatively measured by 3-(4,5,dimethyliazol-2-yl)-5-(3-carboxymethoxy-phenyl)-2-(4-sulfophenyl)-2H-tetrazolium salt (MTS) assay (Promega, Australia). The MTS assay measures the cellular conversion of the tetrazolium salt to a water-soluble brown formazan salt, which is detected spectrophotometrically at 490 nm. MTS absorbance data were converted to reflect proportional cell viability relative to both the untreated and treated controls, with the untreated control taken as 100% viability, and presented as mean±SEM. For studies using astrocytes, bEND3, and SH-Y5Y cells, raw MTS data was used to generate graphs. Viability data was analysed by ANOVA, followed by post-hoc Fischer's PLSD test, with P<0.05 values considered statistically significant. Four- to six wells were used in all assays.

[2] = test system: brain endothelial cells (bEND3 cells); assay: In vitro ischemia/OGD model, bEND3 cells; format: cell-based; details: peptide during/after ischemia (FIG. 3c) or 15 min before OGD (FIGS. 23, 24)
Procedure: The in vitro ischemia model was also used for bEND3 cells, SH-SY5Y cells, and astrocytes. For bEND3 cells anaerobic incubation was extended to 2-3 hours and upon removal from the anaerobic incubator, 60 μl of DMEM/2% FCS was added to wells. […] Upon removal from the anaerobic incubator, 60 μl of DMEM/2% FCS was added to wells.

[3] = test system: primary rat astrocytes; assay: In vitro ischemia/OGD model, astrocytes; format: cell-based; details: 2 μM, 15 min prior to OGD (FIG. 42)
Procedure: A brain endothelial cell line (bEND3) and a neuroblastoma cell line (SH-SY5Y) were also used for some experiments. bEND3 and SH-SY5Y cells were cultured using standard techniques in DMEM plus 5 or 15% foetal calf serum. Rat primary astrocytes were obtained and cultured as described for cortical neurons except DMEM plus 10% foetal calf serum was used instead of Neurobasal/2% B27, and the mitotic inhibitor, cytosine arabinofuraNOside was not used.
The in vitro ischemia model was also used for bEND3 cells, SH-SY5Y cells, and astrocytes. For bEND3 cells anaerobic incubation was extended to 2-3 hours and upon removal from the anaerobic incubator, 60 μl of DMEM/2% FCS was added to wells. […]
as §1, with “For studies using astrocytes, bEND3, and SH-Y5Y cells, raw MTS data was used to generate graphs. Viability data was analysed by ANOVA, followed by post-hoc Fischer's PLSD test, with P<0.05 values considered statistically significant. Four- to six wells were used in all assays.” left out

Row | Compound | neuroprotection ([1]; FIG. 2) | fold more potent than TAT-D, based on IC50 values ([1]; kainic acid model) [fold] | IC50 ([1]; read-out: IC50: Kainic acid model, Table 3, from FIG. 2, 200 μM kainic acid 45 min, viability 24 h, MTS) [µM] | protection of bEND3 cells (cell death / viability after in vitro ischemia/OGD) [2] | astrocyte cell death after in vitro ischemia [3]
1 | N=C(N)NCCC[C@H](NC(=O)[C@H](CCCNC(=N)N)NC(=O)[C@H](CCCNC(=N)N)NC(=O)[C@H](CCCNC(=N)N)NC(=O)[C@H](CCCNC(=N)N)NC(=O)[C@H](CCCNC(=N)N)NC(=O)[C@H](CCCNC(=N)N)NC(=O)[C@H](CCCNC(=N)N)NC(=O)[C@@H](N)CCCNC(=N)N)C(=O)O [Peptide R9] | neuroprotective | 7 | 0.81 | reduced; also recorded: able to protect | –
2 | H-RRRRRRRRRRRRRRRRRR-OH [Peptide R18] | – | – | – | – | reduced astrocyte cell death
